Assays:
SARS-CoV-2 [1] = test: Antiviral activity against SARS-CoV-2 infected in African green monkey Vero E6 cells assessed as reduction in infection measured after 24 hrs by Plaque assay; format: functional, organism-based; settings: Severe acute respiratory syndrome coronavirus 2, Vero C1008, 24 h
[2] = Oral bioavailability in Beagle dog by LC-MS/MS analysis; format: ADME, organism-based, Canis lupus familiaris; settings: in vivo
[3] = Oral bioavailability in Sprague-Dawley rat by LC-MS/MS analysis; format: ADME, organism-based; settings: in vivo
[4] = target: T1, Replicase polyprotein 1ab (Severe acute respiratory syndrome coronavirus 2, UniProt P0DTD1); test: Inhibition of SARS-CoV-2 HKU-001a 3CL protease
[5] = Oral bioavailability in mouse by LC-MS/MS analysis; format: ADME, organism-based; settings: in vivo
Calpain1/2 = target: T2, Calpain1/2 (Homo sapiens, UniProt P17655+P07384); test: Inhibition of human calpain using Z-Phe-Arg-AMC as substrate incubated for 30 mins by FRET assay; format: protein assay
T2 sequence (P17655 whole entry): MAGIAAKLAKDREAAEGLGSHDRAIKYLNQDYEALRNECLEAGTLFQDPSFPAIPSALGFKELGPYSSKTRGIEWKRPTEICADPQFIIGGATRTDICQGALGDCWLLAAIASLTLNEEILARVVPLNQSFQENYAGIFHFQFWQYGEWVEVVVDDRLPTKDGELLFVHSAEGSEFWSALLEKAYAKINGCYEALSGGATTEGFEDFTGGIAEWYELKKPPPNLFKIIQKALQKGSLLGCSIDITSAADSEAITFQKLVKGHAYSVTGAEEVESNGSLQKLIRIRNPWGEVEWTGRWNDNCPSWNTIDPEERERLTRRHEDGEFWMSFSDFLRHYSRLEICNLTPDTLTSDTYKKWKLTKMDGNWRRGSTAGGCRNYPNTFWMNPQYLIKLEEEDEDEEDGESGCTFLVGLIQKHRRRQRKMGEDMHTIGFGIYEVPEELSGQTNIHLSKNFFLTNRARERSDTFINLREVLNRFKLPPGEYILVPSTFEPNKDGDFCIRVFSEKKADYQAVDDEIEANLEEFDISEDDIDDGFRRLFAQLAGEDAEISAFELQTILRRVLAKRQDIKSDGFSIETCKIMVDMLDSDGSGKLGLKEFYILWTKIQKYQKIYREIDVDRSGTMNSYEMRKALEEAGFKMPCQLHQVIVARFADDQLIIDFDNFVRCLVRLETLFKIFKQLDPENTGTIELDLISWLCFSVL
T2 sequence (P07384 whole entry): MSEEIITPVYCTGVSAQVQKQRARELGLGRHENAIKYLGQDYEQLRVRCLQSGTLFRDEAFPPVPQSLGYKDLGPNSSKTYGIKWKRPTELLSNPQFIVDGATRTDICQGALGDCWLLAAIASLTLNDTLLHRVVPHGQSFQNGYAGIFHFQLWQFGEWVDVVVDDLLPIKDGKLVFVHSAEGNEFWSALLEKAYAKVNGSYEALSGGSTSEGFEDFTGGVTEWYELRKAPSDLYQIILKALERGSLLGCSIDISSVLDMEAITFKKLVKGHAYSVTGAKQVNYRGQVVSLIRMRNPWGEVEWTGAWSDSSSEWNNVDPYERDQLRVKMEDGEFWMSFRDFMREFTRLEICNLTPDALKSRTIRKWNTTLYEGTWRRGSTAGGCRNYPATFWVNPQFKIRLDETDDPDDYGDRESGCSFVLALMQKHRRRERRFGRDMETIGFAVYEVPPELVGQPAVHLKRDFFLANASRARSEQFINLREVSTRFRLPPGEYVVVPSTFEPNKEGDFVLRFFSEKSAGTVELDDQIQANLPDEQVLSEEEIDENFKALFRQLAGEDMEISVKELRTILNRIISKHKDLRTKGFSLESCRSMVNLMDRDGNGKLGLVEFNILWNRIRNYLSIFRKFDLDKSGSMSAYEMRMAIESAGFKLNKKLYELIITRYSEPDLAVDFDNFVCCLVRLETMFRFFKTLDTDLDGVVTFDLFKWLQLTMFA

Caspase-3 = target: T3, Caspase-3 (Homo sapiens, UniProt P42574); test: Inhibition of human caspase 3 using Z-Phe-Arg-AMC as substrate incubated for 30 mins by FRET assay
T3 sequence (P42574 whole entry): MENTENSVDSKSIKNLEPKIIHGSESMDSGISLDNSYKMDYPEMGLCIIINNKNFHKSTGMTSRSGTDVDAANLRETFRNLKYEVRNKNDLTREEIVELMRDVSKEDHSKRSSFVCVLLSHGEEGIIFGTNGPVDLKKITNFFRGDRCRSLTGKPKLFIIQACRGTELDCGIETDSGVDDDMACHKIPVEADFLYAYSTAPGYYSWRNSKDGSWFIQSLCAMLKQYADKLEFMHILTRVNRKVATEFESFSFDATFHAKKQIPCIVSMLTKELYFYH

SARS-CoV-2 [6] = test: Antiviral activity against SARS-CoV-2 infected in African green monkey Vero E6 cells; format: functional, organism-based; settings: Severe acute respiratory syndrome coronavirus 2, Vero C1008
Trypsin = Trypsin (Homo sapiens, UniProt P07477+P07478+P35030); test: Inhibition of human Trypsin using Z-Phe-Arg-AMC as substrate incubated for 30 mins by FRET assay; format: protein assay
SARS-CoV-2 [7] = test: Antiviral activity against SARS-CoV-2 infected in […] Caco-2 cells; format: functional, organism-based; settings: Severe acute respiratory syndrome coronavirus 2, Caco-2
[8] = Inhibition of human cathepsin using Z-Phe-Arg-AMC as substrate incubated for 30 mins by FRET assay
[9] = target: T1, Replicase polyprotein 1ab; test: Inhibition of SARS-CoV-2 3CL protease
[10] = target: T1, Replicase polyprotein 1ab; test: Inhibition of SARS-CoV-2 3CL protease expressed in escherichia coli measured after 24 hrs by SDS-PAGE
Homo sapiens [11] = species on record: Homo sapiens; test: Antiviral activity against SARS-CoV-2 infected in human A549-ACE2 cells by immunofluorescence microscopic technique; format: functional, cell-based
Homo sapiens [12] = species on record: Homo sapiens; test: Antiviral activity against SARS-CoV-2 infected in human A549-ACE2 cells; format: functional, cell-based

## O=C[C@H](C[C@@H]1CCNC1=O)NC(=O)[C@H](Cc1cccc(F)c1)NC(=O)c1cc2ccccc2[nH]1
SARS-CoV-2 [1]
  IC50: 0.72 µM

## [2H][C@](C(=O)N[C@@H](C)c1ccc(F)cc1)(c1cccnc1)N(C(=O)C(C)=O)c1ccc2c(c1)oc1ccccc12
[2]
  bioavailability: 85.7%
[3]
  bioavailability: 31.9%
[4]
  IC50: 0.0081 µM
[5]
  bioavailability: 92.9%

## C[C@H](NC(=O)[C@@H](c1cccnc1)N(C(=O)C(Cl)Cl)c1ccc(-c2ccccc2)cc1)c1ccccc1
Calpain1/2
  IC50: > 20 µM
Caspase-3
  IC50: > 20 µM
SARS-CoV-2 [6]
  EC50: 0.9 µM
Trypsin
  IC50: > 20 µM
SARS-CoV-2 [7]
  EC50: 2.05 µM
[8]
  IC50: > 20 µM

## O=C[C@H](C[C@@H]1CCNC1=O)NC(=O)[C@@H]1[C@H]2CCC[C@H]2CN1C(=O)CCc1cc(F)cc(F)c1
[9]
  IC50: 7.6 µM

## CNC(=O)c1cc(Br)cc([N+](=O)[O-])c1N[C@@H]1CCCC[C@@H]1NC(=O)c1cccc2ccccc12
[10]
  IC50: 0.072 µM
Homo sapiens [11]
  EC50: 0.012 µM

## Cc1ccc(NC(=O)c2ccc(CN3CCN(C)CC3)cc2)cc1Nc1nc(-c2cccnc2)cs1 [MASITINIB]
Homo sapiens [12]
  EC50: 3.2 µM

— ChEMBL document CHEMBL5252565, “Advances in research on 3C-like protease (3CLpro) inhibitors against SARS-CoV-2 since 2020” (RSC Med Chem, 2023)
